Experimental data reported in US12257247B2 (Monte Rosa Therapeutics AG, priority 2023, dated 2025).
Read-outs that look alike come from different tables or passages of the source.

Target: T1, VAV1 (Homo sapiens, UniProt P15498+Q96SW2)
T1 construct: A heterozygous VAV1 C-terminal HiBiT knock-in pool was generated at Monte Rosa Therapeutics from a clonal Jurkat cell; endogenous in cells; host or cells: Jurkat clone stably expressing LgBiT, homozygous GSPT1-G575N; heterozygous VAV1-HiBiT knock-in pool
Test: VAV1 degradation activity, VAV1-HiBiT knock-in Jurkat luminescence assay (Example A, Table 1)
Format: cell-based
Details: VAV1-HiBiT knock-in Jurkat cells; for Dmax: Jurkat
Outline: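 Jurkat cells carrying VAV1-HiBiT knock-in, plated in RPMI/10% FBS with Endurazine live-cell substrate and pre-incubated ~16 h at 37° C. Compound dosed from 10 μM stock; luminescence read 6 and 24 h later. Response normalised to plate negative/positive controls, EC50 from 3-parameter logistic fit (hillslope 1).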

[1] = luminescence read at 6 and 24 hours, read-out: VAV1 Dmax %
[2] = luminescence read at 6 and 24 hours, read-out: VAV1 Dmax %, class
[3] = luminescence read at 6 and 24 hours, read-out: VAV1 DC50
[4] = luminescence read at 6 and 24 hours, read-out: VAV1 DC50 (nM), class
[5] = luminescence read at 6 and 24 hours after compound addition, read-out: VAV1 Dmax %
[6] = luminescence read at 6 and 24 hours after compound addition, read-out: VAV1 Dmax %, class
[7] = luminescence read at 6 and 24 hours after compound addition, read-out: VAV1 DC50
[8] = luminescence read at 6 and 24 hours after compound addition, read-out: VAV1 DC50 (nM), class

SMILES	Dmax [1] [%]	Dmax [2] [%]	DC50 [3] [nM]	DC50 [4] [nM]	Dmax [5] [%]	Dmax [6] [%]	DC50 [7] [nM]	DC50 [8] [nM]
O=C1CCC(c2cccc(-c3ccc(NC(=O)c4ccno4)cc3)c2Cl)C(=O)N1 (centres unmarked) [Compound 228, N-(2′-chloro-3′-(2,6-dioxopiperidin-3-yl)-[1,1′-biphenyl]-4-yl)isoxazole-5-carboxamide]	73.5	60 to 90	190	100 to 1000				
O=C1CCC(c2cccc(-c3ccc4c(c3)CC(=O)N4Cc3cocn3)c2Cl)C(=O)N1 (centres unmarked) [Compound 505, 3-(2-chloro-3-(1-(oxazol-4-ylmethyl)-2-oxoindolin-5-yl)phenyl)piperidine-2,6-dione]					80.7	60 to 90	86.9	≤ 100
O=C1CCC(c2cccc(-c3ccc(CN4C(=O)CC45CCOCC5)cc3)c2Cl)C(=O)N1 (centres unmarked) [Compound 278]	95.9	> 90	5.33	≤ 100				
CC(c1ccc(-c2cccc(C3CCC(=O)NC3=O)c2Cl)cc1)n1ccccc1=O (centres unmarked) [Compound 174, 3-(2-chloro-4′-(1-(2-oxopyridin-1(2H)-yl)ethyl)-[1,1′-biphenyl]-3-yl)piperidine-2,6-dione]	92.2	> 90	27.4	≤ 100				
CC1CCN(Cc2ccc(-c3cccc(C4CCC(=O)NC4=O)c3Cl)cc2)C(=O)C1 (centres unmarked) [Compound 286]	94	> 90	15.9	≤ 100				
CC1CCC(=O)N(Cc2ccc(-c3cccc(C4CCC(=O)NC4=O)c3Cl)cc2)C1 (centres unmarked) [Compound 288]	96.7	> 90	6.09	≤ 100				
Cn1cnc(CN2C(=O)Cc3cc(-c4cccc(C5CCC(=O)NC5=O)c4Cl)ccc32)c1 (centres unmarked) [Compound 504, 3-(2-chloro-3-(1-((1-methyl-1H-imidazol-4-yl)methyl)-2-oxoindolin-5-yl)phenyl)piperidine-2,6-dione]					96.7	> 90	5.5	≤ 100
CN1CC(=O)N(c2ccc(-c3cccc(C4CCC(=O)NC4=O)c3Cl)cc2)c2cccnc21 (centres unmarked) [Compound 335]	97.3	> 90	5.87	≤ 100				
O=C1CCC(c2cccc(-c3cnc(-n4ccccc4=O)nc3)c2Cl)C(=O)N1 (centres unmarked) [Compound 474, 3-(2-chloro-3-(2-(2-oxopyridin-1(2H)-yl)pyrimidin-5-yl)phenyl)piperidine-2,6-dione]	35.3	< 60	≥ 10000	> 1000				
CN1CCc2cc(-c3cccc(C4CCC(=O)NC4=O)c3Cl)ccc21 (centres unmarked) [Compound 488, 3-(2-chloro-3-(1-methylindolin-5-yl)phenyl)piperidine-2,6-dione]					91	> 90	17.2	≤ 100
O=C1CCC(c2cccc(-c3ccc(C(=O)N4CCCC4)cc3)c2Cl)C(=O)N1 (centres unmarked) [Compound 181, 3-(2-chloro-4′-(pyrrolidine-1-carbonyl)-[1,1′-biphenyl]-3-yl)piperidine-2,6-dione]	85.9	60 to 90	33.9	≤ 100				
Cn1ccc(COc2ccc(-c3cccc(C4CCC(=O)NC4=O)c3Cl)cc2)n1 (centres unmarked) [Compound 154, 3-(2-chloro-4′-((1-methyl-1H-pyrazol-3-yl)methoxy)-[1,1′-biphenyl]-3-yl)piperidine-2,6-dione]	97	> 90	18.7	≤ 100				
O=C1CCC(c2cccc(-c3ccc(N4C(=O)C[C@@H]5CCC[C@@H]54)cc3)c2Cl)C(=O)N1 (some centres unmarked) [Compound 327]	89.3	60 to 90	30.1	≤ 100				
CN1CC(=O)N(c2ccc(-c3cccc(C4CCC(=O)NC4=O)c3Cl)cn2)CC12CC2 (centres unmarked) [Compound 346, 3-(2-chloro-3-(6-(4-methyl-6-oxo-4,7-diazaspiro[2.5]octan-7-yl)pyridin-3-yl)phenyl)piperidine-2,6-dione]	29.4	< 60	≥ 10000	> 1000				

The next lines start with the values.

Dmax [1] [%]	Dmax [2] [%]	DC50 [3] [nM]	DC50 [4] [nM]	Dmax [5] [%]	Dmax [6] [%]	DC50 [7] [nM]	DC50 [8] [nM]	SMILES
98.7	> 90	2.24	≤ 100					O=C1CCC(c2cccc(-c3ccc(-n4c(C(F)F)cccc4=O)cc3)c2Cl)C(=O)N1 (centres unmarked) [Compound 238, 3-(2-chloro-4′-(6-(difluoromethyl)-2-oxopyridin-1(2H)-yl)-[1,1′-biphenyl]-3-yl)piperidine-2,6-dione]
69.5	60 to 90	331	100 to 1000					O=C1CCC(c2cccc(-c3cnc(N4CCCCC4=O)c(F)c3)c2Cl)C(=O)N1 (centres unmarked) [Compound 369, 3-(2-chloro-3-(5-fluoro-6-(2-oxopiperidin-1-yl)pyridin-3-yl)phenyl)piperidine-2,6-dione]
1.26	< 60	≥ 10000	> 1000					Cn1ccc(COc2ccc(-c3ccc(Cl)c(C4CCC(=O)NC4=O)c3)c(Cl)c2)n1 (centres unmarked) [Compound 153, 3-(2′,4-dichloro-4′-((1-methyl-1H-pyrazol-3-yl)methoxy)-[1,1′-biphenyl]-3-yl)piperidine-2,6-dione]
90	> 90	28.1	≤ 100					CN1CC(=O)N(Cc2ccc(-c3cccc(C4CCC(=O)NC4=O)c3Cl)cc2)CC12COC2 (centres unmarked) [Compound 259]
81.1	60 to 90	239	100 to 1000					O=C1CCC(c2cccc(-c3ccc(CCCn4ccccc4=O)cc3)c2Cl)C(=O)N1 (centres unmarked) [Compound 178, 3-(2-chloro-4′-(3-(2-oxopyridin-1(2H)-yl)propyl)-[1,1′-biphenyl]-3-yl)piperidine-2,6-dione]
98.8	> 90	2.25	≤ 100					Cn1ccc(C(F)(F)F)c(-c2ccc(-c3cccc(C4CCC(=O)NC4=O)c3Cl)cc2)c1=O (centres unmarked) [Compound 428, 3-(2-chloro-4′-(1-methyl-2-oxo-4-(trifluoromethyl)-1,2-dihydropyridin-3-yl)-[1,1′-biphenyl]-3-yl)piperidine-2,6-dione]
21.5	< 60	3330	> 1000					O=C1CCC(c2cccc(-c3cccc(COC4CCOC4)c3)c2Cl)C(=O)N1 (centres unmarked) [Compound 190, 3-(2-chloro-3′-(((tetrahydrofuran-3-yl)oxy)methyl)-[1,1′-biphenyl]-3-yl)piperidine-2,6-dione]
98	> 90	5.59	≤ 100					O=C1CCC(c2cccc(-c3ccc(Cc4ccccn4)cc3)c2Cl)C(=O)N1 (centres unmarked) [Compound 169, 3-(2-chloro-4′-(pyridin-2-ylmethyl)-[1,1′-biphenyl]-3-yl)piperidine-2,6-dione]
86.6	60 to 90	49	≤ 100					C[C@H]1COC(=O)N1c1ccc(-c2cccc(C3CCC(=O)NC3=O)c2Cl)cc1 (stereo partly drawn) [Compound 216, 3-(2-chloro-4′-((S)-4-methyl-2-oxooxazolidin-3-yl)-[1,1′-biphenyl]-3-yl)piperidine-2,6-dione]
97.2	> 90	25.6	≤ 100					O=C1CCC(c2cccc(-c3ccc(Cc4ccco4)cc3)c2Cl)C(=O)N1 (centres unmarked) [Compound 373, 3-(2-chloro-4′-(furan-2-ylmethyl)-[1,1′-biphenyl]-3-yl)piperidine-2,6-dione]
97.8	> 90	7	≤ 100					O=C1CCC(c2cccc(-c3ccc(Cc4ncco4)c(F)c3)c2Cl)C(=O)N1 (centres unmarked) [Compound 385, 3-(2-chloro-3′-fluoro-4′-(oxazol-2-ylmethyl)-[1,1′-biphenyl]-3-yl)piperidine-2,6-dione]
97.3	> 90	7.18	≤ 100					O=C1CCC(c2cccc(-c3ccc(N4C(=O)CCCC45CC5)c(F)c3)c2Cl)C(=O)N1 (centres unmarked) [Compound 350, 3-(2-chloro-3′-fluoro-4′-(5-oxo-4-azaspiro[2.5]octan-4-yl)-[1,1′-biphenyl]-3-yl)piperidine-2,6-dione]
95.4	> 90	10.1	≤ 100					O=C1CCC(c2cccc(-c3ccc(N4CCCCC4=O)cc3)c2Cl)C(=O)N1 (centres unmarked) [Compound 161, 3-(2-chloro-4′-(2-oxopiperidin-1-yl)-[1,1′-biphenyl]-3-yl)piperidine-2,6-dione]
95.7	> 90	7.16	≤ 100					O=C1CCC(c2cccc(-c3ccc(N4C(=O)CCCC4C(F)F)cc3)c2Cl)C(=O)N1 (centres unmarked) [Compound 463, 3-(2-chloro-4′-(2-(difluoromethyl)-6-oxopiperidin-1-yl)-[1,1′-biphenyl]-3-yl)piperidine-2,6-dione]
73.2	60 to 90	98.9	≤ 100					CN(C(=O)c1ccn(C)n1)c1ccc(-c2cccc(C3CCC(=O)NC3=O)c2Cl)cc1 (centres unmarked) [Compound 475, N-(2′-chloro-3′-(2,6-dioxopiperidin-3-yl)-[1,1′-biphenyl]-4-yl)-N, 1-dimethyl-1H-pyrazole-3-carboxamide]
